Key:
[1] = tested on: Malassezia globosa; experiment: Antifungal growth inhibition on MLNA agar, scored against growth control; assay type: cell-based; settings: for Inhibition score Malassezia globosa: MLNA agar, at least 5 days at 30° C.
Protocol: (§1) A solution containing 2% by weight of test compound is prepared in “modified Leeming and Notman liquid (MLNA)” in the following way: 0.2048 g of test compound is weighed out into qs for 10 ml of modified Leeming and Notman liquid; solubilization is carried out by heating and the use of ultrasound. The solutions of test product are twice as concentrated as the final test concentration, in order to take into account the dilution when they are brought into contact with the Malassezia suspension. One of the previously prepared solutions at 2% is diluted to ½ in modified Leeming and Notman liquid, so as to finally obtain a test concentration of 0.5%; the other solution is used as it is (at 2%) so as to finally obtain a test concentration of 1%. The Malassezia strains are brought into contact according to the table below: [table] The mixture is stirred and deposited at the surface of the MLNA agar. It is spread, with a sterile scraper, over the entire surface before recovering the excess. It is left to incubate for at least 5 days at 30° C. The antifungal effect of the compound is evaluated via the absence of growth of the Malassezia strain tested. This inhibition is evaluated relative to the growth control. The inhibitions are scored from 0 to 3 via assessment of the density of the culture at the surface of the agar, in comparison with the growth control, in the following way: [table]

[2] = tested on: Malassezia restricta; experiment: as above; assay type: cell-based; settings: for Inhibition score Malassezia restricta: MLNA agar, at least 5 days at 30° C.
Protocol: as §1

CCOc1cc(CCC(C)=O)ccc1O [Compound tested]
Growth inhibition of Malassezia globosa (in words) ([1]; compound at 0.5%): weakly
Growth inhibition of Malassezia globosa (in words) ([1]; compound at 1%): completely inhibits the growth
Inhibition score Malassezia globosa ([1]; test concentration 0.5%): 1 (25% Growth < in the control dish)
Inhibition score Malassezia globosa ([1]; test concentration 1%): 3 (100% No growth)
Growth inhibition of Malassezia restricta (in words) ([2]; compound at 0.5%): very effective
Growth inhibition of Malassezia restricta (in words) ([2]; compound at 1%): completely inhibits the growth
Inhibition score Malassezia restricta ([2]; test concentration 0.5%): 3 (100% No growth)
Inhibition score Malassezia restricta ([2]; test concentration 1%): 3 (100% No growth)

From patent publication US9161893B2, “Use, as antidandruff agent, of (ethoxyhydroxyphenyl) alkyl ketone or ethoxyhydroxyalkylphenol compounds” (L'OREAL, priority 2011, dated 2015)
